According to patent publication US20260028326A1, “COMPOUND BASED ON ISOINDOLINE-SUBSTITUTED GLUTARIMIDE BACKBONE AND USE THEREOF” (GLUETACS THERAPEUTICS (SHANGHAI) CO., LTD., priority 2022, published 2026):

Each compound was assayed against human Cereblon WT GST-tagged protein (Homo sapiens (Human), UniProt Q96SW2) (assay: CRBN-binding affinity, HTRF (CEREBLON BINDING kit)).
Outline: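 GST-tagged human WT Cereblon incubated with compound, then Thalidomide-Re tracer and anti-GST Eu antibody added. Displacement read by HTRF, reported as CRBN binding inhibition rate against blank control wells without protein.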

Chain of human Cereblon WT GST-tagged protein (Q96SW2 whole entry): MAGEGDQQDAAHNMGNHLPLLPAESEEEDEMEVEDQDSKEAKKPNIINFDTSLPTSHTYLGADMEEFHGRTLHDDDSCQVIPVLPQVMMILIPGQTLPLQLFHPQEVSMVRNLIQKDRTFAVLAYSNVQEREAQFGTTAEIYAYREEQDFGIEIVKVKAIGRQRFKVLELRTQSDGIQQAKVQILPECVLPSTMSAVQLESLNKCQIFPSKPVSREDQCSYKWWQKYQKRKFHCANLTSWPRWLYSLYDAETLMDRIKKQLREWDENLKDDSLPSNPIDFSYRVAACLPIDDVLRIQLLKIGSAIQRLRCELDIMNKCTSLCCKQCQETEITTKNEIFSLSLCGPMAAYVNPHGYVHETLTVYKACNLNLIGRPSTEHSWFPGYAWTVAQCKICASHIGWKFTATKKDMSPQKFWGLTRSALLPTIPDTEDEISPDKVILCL

In order of rising IC50:
1. O=C1CCC(N2Cc3cc(NC4CN(C(=O)c5ccccc5-c5ccc(Cl)cc5)C4)ccc3C2=O)C(=O)N1 (centres unmarked) [GT-04397, 3-(5-((1-(4′-chloro-[1,1′-biphenyl]-2-carbonyl)azetidin-3-yl)amino)-1-oxoisoindolin-2-yl)piperidine-2,6-dione]  200 nM
2. CC1(C)CCC(C(=O)N2CCC(Cc3ccc4c(c3)CN(C3CCC(=O)NC3=O)C4=O)CC2)=C(c2ccc(Cl)cc2)C1 (centres unmarked) [GT-05418, 3-(5-((1-(4′-chloro-5,5-dimethyl-3,4,5,6-tetrahydro-[1,1′-biphenyl]-2-carbonyl)piperidin-4-yl)methyl)-1-oxoisoindolin-2-yl)piperidine-2,6-dione]  540 nM
3. CC1(C)CCC(CN2CC3CC2CN3C(=O)c2ccc3c(c2)CN(C2CCC(=O)NC2=O)C3=O)=C(c2ccc(Cl)cc2)C1 (centres unmarked) [GT-05541, 3-(5-(5-((4′-chloro-5,5-dimethyl-3,4,5,6-tetrahydro-[1,1′-biphenyl]-2-yl)methyl)-2,5-diazabicyclo[2.2.1]heptane-2-carbonyl)-1-oxoisoindolin-2-yl)piperidine-2,6-dione]  600 nM
4. CC1(C)CCC(C(=O)N2CCC(Cc3ccc4c(c3)CN(C3CCC(=O)NC3=O)C4=O)CC2)=C(c2ccc(F)cc2)C1 (centres unmarked) [GT-05487, 3-(5-((1-(4′-fluoro-5,5-dimethyl-3,4,5,6-tetrahydro-[1,1′-biphenyl]-2-carbonyl)piperidin-4-yl)methyl)-1-oxoisoindolin-2-yl)piperidine-2,6-dione]  650 nM
5. CC1(C)CCC(C(=O)N2C3CCC2CN(Cc2ccc4c(c2)CN(C2CCC(=O)NC2=O)C4=O)C3)=C(c2ccc(Cl)cc2)C1 (centres unmarked) [GT-05523, 3-(5-((8-(4′-chloro-5,5-dimethyl-3,4,5,6-tetrahydro-[1,1′-biphenyl]-2-carbonyl)-3,8-diazabicyclo[3.2.1]octan-3-yl)methyl)-1-oxoisoindolin-2-yl)piperidine-2,6-dione]  860 nM
6. CC1(C)CCC(C(=O)N2CCN(Cc3ccc(-c4ccc5c(c4)CN(C4CCC(=O)NC4=O)C5=O)cc3)CC2)=C(c2ccc(Cl)cc2)C1 (centres unmarked) [GT-05359, 3-(5-(4-((4-(4′-chloro-5,5-dimethyl-3,4,5,6-tetrahydro-[1,1′-biphenyl]-2-carbonyl)piperazin-1-yl)methyl)phenyl)-1-oxoisoindolin-2-yl)piperidine-2,6-dione]  970 nM
7. O=C1CCC(N2Cc3c(CN4CCN(C(=O)C5=C(c6ccc(F)cc6)CCCC5)CC4)cccc3C2=O)C(=O)N1 (centres unmarked) [GT-05471, 3-(4-((4-(4′-fluoro-3,4,5,6-tetrahydro-[1,1′-biphenyl]-2-carbonyl)piperazin-1-yl)methyl)-1-oxoisoindolin-2-yl)piperidine-2,6-dione]  1080 nM
8. CC1(C)CCC(C(=O)N2CC3CCC2CN3C(=O)c2ccc3c(c2)CN(C2CCC(=O)NC2=O)C3=O)=C(c2ccc(Cl)cc2)C1 (centres unmarked) [GT-05663, 3-(5-(5-(4′-chloro-5,5-dimethyl-3,4,5,6-tetrahydro-[1,1′-biphenyl]-2-carbonyl)-2,5-diazabicyclo[2.2.2]octane-2-carbonyl)-1-oxoisoindolin-2-yl)piperidine-2,6-dione]  1090 nM
9. CC1(C)CCC(CN2CCN(CCCc3ccc4c(c3)CN(C3CCC(=O)NC3=O)C4=O)CC2)=C(c2ccc(Cl)cc2)C1 (centres unmarked) [GT-05362, 3-(5-(3-(4-((4′-chloro-5,5-dimethyl-3,4,5,6-tetrahydro-[1,1′-biphenyl]-2-yl)methyl)piperazin-1-yl)propyl)-1-oxoisoindolin-2-yl)piperidine-2,6-dione]  1260 nM
10. O=C1CCC(N2Cc3cc(C(=O)N4CC5(CCN(Cc6ccccc6-c6ccc(Cl)cc6)CC5)C4)ccc3C2=O)C(=O)N1 (centres unmarked) [GT-05641, 3-(5-(7-((4′-chloro-[1,1′-biphenyl]-2-yl)methyl)-2,7-diazaspiro[3.5]nonane-2-carbonyl)-1-oxoisoindolin-2-yl)piperidine-2,6-dione]  1480 nM
11. O=C1CCC(N2C(=O)c3ccc(CN4CCN(Cc5ccncc5-c5ccc(Cl)cc5)CC4)cc3C2=O)C(=O)N1 (centres unmarked) [GT-05731, 5-((4-((3-(4-chlorophenyl)pyridin-4-yl)methyl)piperazin-1-yl)methyl)-2-(2,6-dioxopiperidin-3-yl)isoindoline-1,3-dione]  1650 nM
